Values of other authors as cited in patent publication US20110086898A1, “PYRAZOLOOXAZOLE COMPOUND” (Eisai R&D Management Co., Ltd., priority 2009, published 2011).

Legend:
[1] = tested on: naltrexone-induced morphine withdrawal symptoms; details: pretreatment; Journal of Neurochemistry, 74: 199-208 (2000); cited from earlier work
[2] = tested on: learning disability following acute stress; details: Behavioural Brain Research, 138: 207-213 (2003); cited from earlier work
rats [3] = details: Psychopharmacology, 137:184-190 (1998); cited from earlier work
rats [4] = details: European Journal of Pharmacology, 492:195-201 (2004); cited from earlier work
[5] = tested on: gastric emptying retardation after surgery; details: Gastroenterology, 125:654-659 (2003); cited from earlier work
rats [6] = details: Psychopharmacology, 150:317-324 (2000); cited from earlier work
rats [7] = details: European Journal of Neuroscience, 13:373-380 (2001); cited from earlier work
[8] = tested on: depression, depressive symptoms, anxiety; details: Journal of Psychiatric Research, 34:171-181 (2000); cited from earlier work
high-anxiety rats = details: particularly in high-anxiety rats; Journal of Psychiatric Research, 36:197-208 (2002); cited from earlier work
limbic system seizure = details: Brain Research, 770:89-95; cited from earlier work
rat = details: Brain Research, 893:29-35 (2001); cited from earlier work
Tg2576 transgenic mice = details: Journal of Neurochemistry, 108: 165-175 (2009); cited from earlier work
[9] = tested on: hippocampal tau phosphorylation; details: Journal of Neuroscience, 27 (24): 6552-6562 (2007); cited from earlier work
[10] = tested on: hypertension induced by intraventricular administration of CRF; details: Brain Research, 881: 204-207 (2000); cited from earlier work

CCCCN(CC)c1nc(C)nc2c1c(C)cn2-c1c(C)cc(C)cc1C [CP-154526]
naltrexone-induced morphine withdrawal symptoms [1]: inhibits | learning disability following acute stress [2]: inhibits | recurrence of stress-elicited drug (heroin, cocaine)-seeking behavior (rats [3]): inhibits | anti-depressant and anti-anxiety actions (rats [4]): exhibits anti-depressant and anti-anxiety actions | gastric emptying retardation after surgery [5]: recovers | recurrence of stress-elicited alcohol-seeking behavior (rats [6]): inhibits

CCCN(CCC)c1cc(C)nc2c(-c3cnc(N(C)C)cc3C)c(C)nn12 [Example R121919]
anti-anxiety action (rats [7]): exhibits an anti-anxiety action | ameliorating depression, depressive symptoms, anxiety [8]: effective | stress-related sleep disorder (high-anxiety rats): inhibits

CCCN(CC1CC1)c1nc(C)nc(Nc2c(Cl)cc(Cl)cc2Cl)c1Cl [NBI-27914]
limbic system seizure (convulsion and epilepsy induced by CRF administration) (limbic system seizure): inhibits | water avoidance stress-related rat catharsis (rat): inhibits | increased levels of Aβ and Aβ plaque deposition induced by stress (Tg2576 transgenic mice): inhibits

CCCCN(CC)c1nc(C)nc2c1c(C)c(C)n2-c1c(C)cc(C)cc1C [antalarmin]
stress-induced hippocampal tau phosphorylation [9]: inhibits | hypertension induced by intraventricular administration of CRF [10]: inhibits
